# Measured values published in patent US20090253589A1, “Method for Testing Active Compounds” (Nambition GmbH, priority 2006, published 2009).
# Entries after “also recorded” stand apart in the source; their conditions may differ. Like-named read-outs stand apart in the source and are kept apart here.
# Experiments:
# [1] = biological target: T1, rhodopsin Cys110-Cys187 disulfide bond (Bos taurus, UniProt P02699); experiment: SMFS of rhodopsin: ratio of 65 nm (intact Cys110-Cys187 bond) to 95 nm (absent bond) force-distance curves; parameters: species or system bovine; settings: for effect on ratio of intact to broken Cys110-Cys187 disulfide bonds (65 nm vs 95 nm rhodopsin): increasing Zn^2+ concentrations, FIG. 4
# T1 construct: ROS were purified from fresh bovine retinas as described [33]; from tissue; host or cells: bovine retina, rod outer segment (ROS) disc membranes
# T1 sequence (P02699 whole entry): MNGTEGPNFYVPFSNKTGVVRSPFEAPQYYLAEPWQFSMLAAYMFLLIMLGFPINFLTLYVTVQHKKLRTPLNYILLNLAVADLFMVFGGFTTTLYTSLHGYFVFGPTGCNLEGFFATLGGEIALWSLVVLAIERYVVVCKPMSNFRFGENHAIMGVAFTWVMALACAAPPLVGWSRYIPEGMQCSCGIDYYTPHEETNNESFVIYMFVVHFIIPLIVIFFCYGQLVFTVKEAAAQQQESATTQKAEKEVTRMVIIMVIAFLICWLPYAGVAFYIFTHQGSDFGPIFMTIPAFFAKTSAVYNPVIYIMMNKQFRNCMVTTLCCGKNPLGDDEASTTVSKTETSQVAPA
# Source text: This is due to the fact that the loop not unraveled by SMFS in the Cys110-Cys187 form is unfolded in the 95 nm form.
# These force spectra were obtained in substantial absence of zinc, since EDTA was used in the preparation of the ROS disc membranes.
# The ratio of the Cys110-Cys187 rhodopsin force-distance curves and the 95 nm rhodopsin force-distance curves was changed in the presence of dithiothreitol and N-ethylmaleimide. The ratio of the 65 nm curves to the 95 nm curves was 1:2 in the presence of dithiothreitol and 7:1 in the presence of N-ethylmaleimide. Dithiothreitol likely disrupts the Cys110-Cys187 disulfide bond, and N-ethylmaleimide alkylates Cys 185. The action of these two compounds likely occurs during the unfolding of rhodopsin, since the residues modified by these reagents are not accessible in the native structure of the protein, as can be judged from the known crystal structure of rhodopsin.
# AFM imaging and force spectroscopy were performed as described elsewhere. Disc membranes were adsorbed onto a freshly cleaved mica surface as described previously. For force measurements, the AFM stylus was approached to the Rh surface while applying a constant force of ˜1 nN. After a contact time of ˜0.5-1 s, the stylus was retracted from the membrane surface at a constant velocity of 300 nm/s. All experiments were performed in 150 mM KCl, 25 mM MgCl2, 20 mM Tris, pH 7.8, at room temperature. In experiments where rhodopsin was treated with 1 mM EDTA (Sigma), ZnCl2 (Fisher Scientific), CaCl2, CdCl2, CoCl2, or CuCl2, the buffer was supplemented with the specified amounts of the reagent and the pH adjusted to 7.8. When assayed with 0, 10, 25, 50, 100, 200 and 400 μM ZnCl2, rhodopsin in native ROS disc membranes was diluted in the dilution buffer with the required amount of ZnCl2 and incubated on ice for ˜40 mins—1 h in complete darkness. In the case of other metal ions the sample preparation was carried out in a similar way. In the experiment where 1 mM EDTA was used, 25 mM MgCl2 was not added to the buffer. All dilutions were carried out under dim red light and experiments performed in a completely dark room. Force curves were collected over a period of less than 1 h to prevent bleaching of rhodopsin. The red laser on the AFM promoted minimal bleaching of Rh. ROS membranes solubilized in n-dodecyl-β-D-maltoside were bleached less than 5% after incubation under the AFM laser for 1 hr.
# In the first step, the force-distance curves were separated based on their lengths. […] The number of extended amino acid residues at each peak was then calculated using the contour length obtained from the WLC fits. […] To measure the unfolding force and probability of unfolding for each individual structural segment, every event of each curve was analyzed.
# rhodopsin [2] = biological target: T2, rhodopsin (Bos taurus, UniProt P02699); experiment: Single-molecule force spectroscopy (AFM) unfolding of rhodopsin in native ROS disc membranes: unfolding forces and pathways; parameters: ROS were purified from fresh bovine retinas as described [33]; from tissue; host or cells: bovine retina, rod outer segment (ROS) disc membranes; species or system bovine
# Target sequence in this assay (P02699 whole entry): as above
# rhodopsin [3] = biological target: T2, rhodopsin; experiment: SMFS cleavage experiment: ROS membranes digested with endoproteinase Glu-C, fraction of curves by length; parameters: total number of curves obtained from the uncleaved native Rh sample; from tissue; host or cells: bovine retina ROS membranes, treated with endoproteinase Glu-C (Roche Applied Science); species or system bovine
# Description: For cleavage experiments, ROS membranes (2 mg/mL) resuspended in Ringer's buffer (10 mM Hepes, 130 mM NaCl, 3.6 mM KCl, 2.4 mM MgCl2, 1.2 mM CaCl2, 0.02 mM EDTA, pH 7.4) were treated with endoproteinase Glu-C (Roche Applied Science, Indianapolis, Ind., USA) at a substrate to enzyme ratio of 10:1 (w/w). Membranes were digested with the enzyme for 2 h at room temperature and 1.5 h on ice. The reaction was terminated by washing membranes three times with Ringer's buffer containing 5 mM benzamidine (1 mL) and one time with buffer A (1 mL). Membranes were resuspended in buffer A for SMFS studies. For solubilization of rhodopsin (Rh), ROS membranes were resuspended in 20 mM BTP, 150 mM NaCl, 1% n-dodecyl-β-D-maltoside, pH 7.4. The membrane suspension was shaken at room temperature for 10 min and then centrifuged to remove insoluble material at 164,000×g for 30 min. Protein concentration was determined using the Bradford Protein Assay Kit from Bio-Rad Laboratories (Hercules, Calif., USA).
# As mentioned above the molecule could detach from the AFM stylus during unfolding. Therefore, for the cleavage experiments with endoproteinase Glu-C it is important to be certain that the <40 nm length force-distance curves are mainly from the N-terminal fragment of the molecule and not from the detached molecule. […]
# Target sequence in this assay (P02699 whole entry): as above
# Target sequence in this assay (P02699 240-341 limits assumed): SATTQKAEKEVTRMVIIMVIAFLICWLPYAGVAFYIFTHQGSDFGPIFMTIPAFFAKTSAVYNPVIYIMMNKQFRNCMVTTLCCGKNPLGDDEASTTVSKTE
# [4] = in the presence of N-ethylmaleimide
# [5] = 200 μM metal ion in buffer, FIG. 3A
# [6] = dark state rhodopsin, native ROS disc membranes
molecule,measurement,setting,value
CCN1C(=O)C=CC1=O [N-ethylmaleimide],fold increase in the proportion of the 65 nm curves,[1]; [4],3.5 fold
same,fraction of total rhodopsin molecules that lack the Cys110-Cys187 bond,[1]; [4],⅛
"[Cl][Cd][Cl] [cadmium, CdCl2]",effect on stability of rhodopsin segments (difference in unfolding force relative to 0 μM Zn^2+),rhodopsin [2]; [5],destabilize the majority of the segments
same,effect on stability of rhodopsin segments (difference in unfolding force relative to 0 μM Zn^2+),"rhodopsin [2]; 200 μM metal ion in buffer, FIG. 3A, listed as Cd^2+",destabilize or have no effect on the majority of the segments
"[Ca+2].[Cl-].[Cl-] [calcium, CaCl2]",effect on stability of rhodopsin segments (difference in unfolding force relative to 0 μM Zn^2+),rhodopsin [2]; [5],destabilize the majority of the segments
same,effect on stability of rhodopsin segments (difference in unfolding force relative to 0 μM Zn^2+),"rhodopsin [2]; 200 μM metal ion in buffer, FIG. 3A, listed as Ca^2+",destabilize or have no effect on the majority of the segments
"[Cl-].[Cl-].[Co+2] [cobalt, CoCl2]",effect on stability of rhodopsin segments (difference in unfolding force relative to 0 μM Zn^2+),rhodopsin [2],destabilize the majority of the segments; also recorded: destabilize or have no effect on the majority of the segments
"[Cl-].[Cl-].[Mg+2] [magnesium, MgCl2]",effect on the stability of rhodopsin,"rhodopsin [2]; 25 mM Mg^2+, FIG. 3B",almost no effect
"[Cl-].[Cl-].[Zn+2] [zinc, ZnCl2]",effect on ratio of intact to broken Cys110-Cys187 disulfide bonds (65 nm vs 95 nm rhodopsin),[1],favour the level of 65 nm rhodopsin
same,effect on ratio of intact to broken Cys110-Cys187 disulfide bonds (65 nm vs 95 nm rhodopsin),[1]; listed as Zn^2+,clearly stabilizes the disulfide bond in a concentration dependent manner
same,effect on stability of rhodopsin segments (difference in unfolding force relative to 0 μM Zn^2+),rhodopsin [2]; [5],stabilizes most segments of the receptor
same,zinc concentration above which the stability of rhodopsin increased,rhodopsin [2]; [6],above 50 μM
same,zinc concentration giving the highest stability of dark state rhodopsin,rhodopsin [2]; [6],200 µM
same,effect on occurrence probabilities of the unfolding pathways,"rhodopsin [2]; zinc 10, 25, 50, 100, 200 and 400 μM, other metal ions 200 μM",leads to a change in the occurrence probabilities of the unfolding pathways
endoproteinase Glu-C: protease (Roche Applied Science) used to digest ROS membranes in cleavage experiments,fraction of short curves (<40 nm) of the total curves,rhodopsin [3]; digested sample (untreated sample 23%),55%
same,fraction of ≈65 nm and ≈95 nm long curves,rhodopsin [3]; enzymatically treated sample,2%
